Measurements taken from publication PMC8837603, “Lapcin, a potent dual topoisomerase I/II inhibitor discovered by soil metagenome guided total chemical synthesis” (Nature Communications, 2022).

Columns and labels:
[1] = test system: diverse microbial pathogens; assay: Antimicrobial/antifungal susceptibility, whole panel; format: cell-based; conditions: at the highest concentration tested
Method: Lapcin was tested for antimicrobial activity against the bacteria and fungi shown in Supplementary Table 4. […] Ciprofloxacin (Sigma, USA) and Nystatin (Sigma, USA) were used as positive control for bacteria and fungi, respectively. Lapcin was dissolved in sterile DMSO to make a 3.2 mg/mL working solution. Lapcin was diluted across 96-well plates using a 2-fold serial dilution method to give a concentration range of 64 to 0.06 µg/mL in 50 µL of LB broth. A single colony of each test organism was grown in either 5 mL LB (bacteria) or YPD (fungi) medium overnight at 37 °C or 30 °C, respectively. Saturated overnight cultures were diluted 5,000-fold, and then 50 µL of dilute cells were transferred into each well of the assay plates. Finally, each well contains a total volume of 100 µL.

Human Topoisomerase I [2] = biological target: T1, Human Topoisomerase I (Homo sapiens, UniProt P11387); assay: Topoisomerase I DNA cleavage assay; format: biochemical; conditions: supercoil pBR322, 30 min, 37 °C; nick DNA; two independent times
T1 construct: purchased Inspiralis, UK
T1 sequence (P11387 1-765): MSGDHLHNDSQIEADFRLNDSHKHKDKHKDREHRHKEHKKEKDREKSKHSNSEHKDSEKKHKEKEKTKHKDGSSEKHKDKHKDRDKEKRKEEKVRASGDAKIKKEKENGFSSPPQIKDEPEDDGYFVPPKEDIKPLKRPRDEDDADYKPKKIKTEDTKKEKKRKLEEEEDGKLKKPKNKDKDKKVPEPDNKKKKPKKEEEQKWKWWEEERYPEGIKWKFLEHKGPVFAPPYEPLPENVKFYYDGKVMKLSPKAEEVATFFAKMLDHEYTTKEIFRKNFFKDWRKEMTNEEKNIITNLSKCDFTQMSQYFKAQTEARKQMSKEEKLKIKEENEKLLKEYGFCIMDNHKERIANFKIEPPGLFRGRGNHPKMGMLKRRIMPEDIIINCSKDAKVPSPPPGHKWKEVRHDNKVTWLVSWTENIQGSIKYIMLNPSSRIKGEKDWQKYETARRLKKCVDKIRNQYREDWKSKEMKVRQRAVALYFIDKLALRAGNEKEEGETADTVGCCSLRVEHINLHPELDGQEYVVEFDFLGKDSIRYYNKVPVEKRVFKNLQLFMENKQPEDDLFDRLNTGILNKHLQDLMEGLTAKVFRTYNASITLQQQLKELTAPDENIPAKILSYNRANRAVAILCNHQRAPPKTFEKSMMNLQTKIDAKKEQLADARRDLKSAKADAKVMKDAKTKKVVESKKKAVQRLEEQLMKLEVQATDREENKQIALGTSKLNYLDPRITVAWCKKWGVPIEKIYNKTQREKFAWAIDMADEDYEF
Method: Topoisomerase I/II cleavage assay: A commercial Human topoisomerase cleavage assay kit (Inspiralis, UK) was used in this study with a slight modification. Camptothecin (Sigma, USA) and Etoposide (Sigma, USA) were used as the positive control for topoisomerase I cleavage assay and topoisomerase II cleavage assay, respectively. The assay was performed according to the manufacture’s protocol. Briefly, 29 µL of the master mixture was prepared by adding 3 µL of 10 x assay buffer, 1 µL of 1 µg/µL supercoil pBR322, 1 µL of 30 mM ATP (only used in topoisomerase II cleavage assay), 1.5 µL serial diluted compounds (dissolved in DMSO) and H2O. Finally, 1 µL of 10 U/µL human topoisomerase I/II alpha was added to the reaction mixture. The reaction was incubated for 30 minutes at 37℃. After incubation, 3 µL of 2% (w/v) SDS and 1.5 µL of 10 mg/mL proteinase K was added. The reaction was mixed briefly and incubated for another 30 minutes at 37 ℃. The reaction was stopped by added 10 µL of H2O, 40 µL of STEB stop buffer and 40 µL of Chloroform/isoamyl alcohol (v:v, 24:1). The mixture was vortexed vigorously for 10 secs and centrifuged for 2 minutes. 20 µL of aqueous phase was loaded onto 1% (w/v) agarose gel and separated at 80 V for 2 hours in 0.5% TBE buffer. […]

Human Topoisomerase I [3] = biological target: T1, Human Topoisomerase I; assay: Human Topoisomerase I DNA relaxation assay; format: biochemical
Method: All values were normalized to the negative control wells. […] All experiments were performed in triplicate (n = 3).

[4] = test system: Klebsiella pneumonia ATCC10031; conditions: LB, 16 h, 37 °C, n = 2
Method: (§1) Lapcin was tested for antimicrobial activity against the bacteria and fungi shown in Supplementary Table 4. […] Lapcin was dissolved in sterile DMSO to make a 3.2 mg/mL working solution. Lapcin was diluted across 96-well plates using a 2-fold serial dilution method to give a concentration range of 64 to 0.06 µg/mL in 50 µL of LB broth. A single colony of each test organism was grown in either 5 mL LB (bacteria) or YPD (fungi) medium overnight at 37 °C or 30 °C, respectively. Saturated overnight cultures were diluted 5,000-fold, and then 50 µL of dilute cells were transferred into each well of the assay plates. Finally, each well contains a total volume of 100 µL.

[5] = test system: Acinetobacter baumannii ATCC17978; conditions: LB, 16 h, 37 °C, n = 2
Method: as §1

Human Topo II = biological target: T2, Human Topo II (Homo sapiens, UniProt P11388); assay: Human Topoisomerase II DNA decatenation assay; format: biochemical
T2 construct: purchased TopoGen, USA
Method: The decatenation assay was conducted using a Human Topo II decatenation kit (TopoGen, USA). […] Assays were performed according to the manufacturer’s protocol. Briefly, on ice, 19 µL of master mixture was prepared by adding 4 µL of freshly prepared 5 x assay buffer (0.5 M Tris-HCl pH8.0, 1.50 M NaCl, 100 mM MgCl2, 5 mM Dithiothreitol, 300 µg/mL BSA, 20 mM ATP), 1 µL of 200 ng/µL kDNA and 5 µL of serial diluted assay compounds in 200 µL reaction tubes. 1 µL of fresh diluted topoisomerase II (1U) was then added to each reaction tube. The total reaction volume was adjusted to 20 µL with H2O. These reactions were incubated at 37 °C for 30 min and stopped by addition of 4 µL of 5 x Stop Buffer (TopoGen, USA). Samples were loaded directly onto a 1% (w/v) agarose gel containing 0.5 µg/ml ethidium bromide and separated at 140 v for 1 hour in 0.5% TBE buffer. The intensity of released (decatenated) circular rings was quantified using Analytik Jena image software. All values were normalized to the negative control wells. The intensity of decatenated band was used in the determination of IC50 of tested compounds and the curve was drawn in Prism 9 (9.0.0). All experiments were performed in triplicate (n = 3).

E. coli gyrase = biological target: T3, E. coli gyrase (Escherichia coli, UniProt P0AES4+P0AES6); assay: DNA gyrase supercoiling assay; format: biochemical
T3 construct: purchased TopoGen, USA
Method: The DNA gyrase supercoiling assay was conducted with an E. coli gyrase supercoiling kit (TopoGen, USA) in this assay. Ciprofloxacin (Sigma, USA) was used as the positive control. Assay was performed according to the manufacture’s protocol. […] The final volume of the reaction was adjusted to 19 µL with H2O. Finally, 1 µL of fresh diluted E. coli gyrase (1U) was added into the reaction mixture and incubated at 37 °C for 60 min. The reaction was terminated by addition of 2 µL of 10% SDS and 2 µL of 50 µg/mL proteinase K followed by a 30 min at 37 °C. The reaction was then extracted with 20 µL of chloroform/isoamyl alcohol (v:v, 24:1). The aqueous material loaded a on 1% (w/v) agarose gel and separated at 140 v for 1 hour in 0.5% TBE buffer. The gel was visualized using ethidium bromide staining. The intensity of SC plasmid bands was quantified using Analytik Jena image software. The intensity of SC bands was used in the determination of IC50 of tested compounds and the curve were drawn in Prism 9 (9.0.0). The assay was performed in triplicate (n = 3).

[6] = test system: Candida albicans ATCC76485; assay: MIC assay, Candida albicans; format: cell-based; conditions: YPD, 16 h, n = 2
Method: as §1

T2 sequence (P11388 whole entry): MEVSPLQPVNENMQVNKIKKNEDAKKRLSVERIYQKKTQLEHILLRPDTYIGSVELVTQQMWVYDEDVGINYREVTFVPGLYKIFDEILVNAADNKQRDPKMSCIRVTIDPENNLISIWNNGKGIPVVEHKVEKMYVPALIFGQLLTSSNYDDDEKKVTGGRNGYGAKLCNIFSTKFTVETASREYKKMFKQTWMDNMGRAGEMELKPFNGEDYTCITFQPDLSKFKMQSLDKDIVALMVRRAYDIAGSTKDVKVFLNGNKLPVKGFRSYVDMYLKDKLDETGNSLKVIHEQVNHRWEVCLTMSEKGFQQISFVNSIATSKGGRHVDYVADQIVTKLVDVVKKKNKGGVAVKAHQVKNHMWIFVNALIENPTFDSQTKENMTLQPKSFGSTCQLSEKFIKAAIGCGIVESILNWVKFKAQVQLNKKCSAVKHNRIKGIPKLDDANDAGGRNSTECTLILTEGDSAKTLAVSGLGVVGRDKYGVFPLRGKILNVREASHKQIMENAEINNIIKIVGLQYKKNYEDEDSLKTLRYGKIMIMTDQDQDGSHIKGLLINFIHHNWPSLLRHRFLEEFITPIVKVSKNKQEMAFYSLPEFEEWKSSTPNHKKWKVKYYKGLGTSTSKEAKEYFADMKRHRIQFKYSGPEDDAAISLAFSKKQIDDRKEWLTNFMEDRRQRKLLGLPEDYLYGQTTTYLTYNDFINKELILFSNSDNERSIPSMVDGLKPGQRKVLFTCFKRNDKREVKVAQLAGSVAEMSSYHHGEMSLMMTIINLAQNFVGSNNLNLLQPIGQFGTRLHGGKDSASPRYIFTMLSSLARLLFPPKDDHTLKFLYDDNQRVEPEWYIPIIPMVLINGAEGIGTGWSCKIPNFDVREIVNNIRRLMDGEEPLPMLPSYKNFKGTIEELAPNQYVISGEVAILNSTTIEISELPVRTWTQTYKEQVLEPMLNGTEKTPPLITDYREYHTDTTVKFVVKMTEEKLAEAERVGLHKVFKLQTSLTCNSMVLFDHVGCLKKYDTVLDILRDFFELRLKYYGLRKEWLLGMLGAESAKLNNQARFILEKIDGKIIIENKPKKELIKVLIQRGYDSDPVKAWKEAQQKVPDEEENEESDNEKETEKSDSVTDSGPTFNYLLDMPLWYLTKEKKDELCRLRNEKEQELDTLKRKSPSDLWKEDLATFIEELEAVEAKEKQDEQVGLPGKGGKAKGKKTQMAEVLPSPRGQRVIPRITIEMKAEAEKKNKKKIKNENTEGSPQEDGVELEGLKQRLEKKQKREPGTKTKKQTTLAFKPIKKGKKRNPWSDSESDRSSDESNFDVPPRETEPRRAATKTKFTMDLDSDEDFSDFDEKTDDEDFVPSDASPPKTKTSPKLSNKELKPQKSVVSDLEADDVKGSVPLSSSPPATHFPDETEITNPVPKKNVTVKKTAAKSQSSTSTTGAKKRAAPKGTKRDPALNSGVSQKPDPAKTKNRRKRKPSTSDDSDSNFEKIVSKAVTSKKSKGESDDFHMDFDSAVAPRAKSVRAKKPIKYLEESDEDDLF
T3 sequence (P0AES4 whole entry, one chain of several): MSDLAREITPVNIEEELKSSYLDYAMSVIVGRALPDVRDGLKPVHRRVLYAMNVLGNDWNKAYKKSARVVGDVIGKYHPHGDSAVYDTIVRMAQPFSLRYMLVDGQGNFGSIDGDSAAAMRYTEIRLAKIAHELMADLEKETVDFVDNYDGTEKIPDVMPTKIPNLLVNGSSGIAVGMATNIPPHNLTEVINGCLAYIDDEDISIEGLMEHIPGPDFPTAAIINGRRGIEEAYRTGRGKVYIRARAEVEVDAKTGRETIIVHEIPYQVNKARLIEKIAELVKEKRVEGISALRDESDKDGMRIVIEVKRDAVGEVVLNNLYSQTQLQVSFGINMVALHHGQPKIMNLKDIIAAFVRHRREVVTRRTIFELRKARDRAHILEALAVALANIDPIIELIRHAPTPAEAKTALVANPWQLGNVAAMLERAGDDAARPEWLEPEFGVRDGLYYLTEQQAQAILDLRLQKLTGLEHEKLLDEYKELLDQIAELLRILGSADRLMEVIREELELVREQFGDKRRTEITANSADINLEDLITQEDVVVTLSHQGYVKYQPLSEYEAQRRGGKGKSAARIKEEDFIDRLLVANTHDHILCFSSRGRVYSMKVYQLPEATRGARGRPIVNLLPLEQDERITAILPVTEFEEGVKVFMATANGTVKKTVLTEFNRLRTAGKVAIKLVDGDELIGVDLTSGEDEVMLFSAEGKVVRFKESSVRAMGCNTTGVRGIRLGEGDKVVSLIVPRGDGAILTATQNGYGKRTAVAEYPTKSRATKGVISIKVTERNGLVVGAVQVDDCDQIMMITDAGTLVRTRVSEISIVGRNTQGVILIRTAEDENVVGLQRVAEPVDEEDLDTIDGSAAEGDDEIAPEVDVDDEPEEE

For `CCCCCCCCCCCC(O)CC(=O)N[C@@H](C)C(=O)N[C@@H](CO)C(=O)N[C@@H](C)C(=O)Nc1ccc(-c2nc(-c3nc(C(=O)N[C@@H](CC(N)=O)C(=O)Nc4ccc(C(=O)Nc5ccc(C(=O)Nc6ccc(C(=O)O)cc6)c(O)c5OC(C)C)cc4)cs3)cs2)cc1` (stereo partly drawn) [Lapcin, 4-(4-(4-((2S)-4-amino-2-(2'-(4-((2S)-2-((2S)-3-hydroxy-2-((2S)-2-(3-hydroxytetradecanamido)propanamido)propanamido)propanamido)phenyl)-[2,4'-bithiazole]-4-carboxamido)-4-oxobutanamido)benzamido)-2-hydroxy-3-isopropoxybenzamido)benzoic acid], the “antimicrobial or antifungal activity” value [1] was “no antimicrobial or antifungal activity”, the “accumulation of cleavage product, Topo I” value (Human Topoisomerase I [2]) was “did not observe the accumulation of a cleavage product” and the “fold more potent than camptothecin, topoisomerase I” value (Human Topoisomerase I [3]) was 14 times. For the same molecule, the IC50 (Human Topoisomerase I [3]; supercoiled pBR322, 30 min, 37 °C, gel, ethidium bromide, n = 3) was 2.17 µM, the “MIC, Klebsiella pneumonia” value [4] was over 32 µg/mL and the “MIC, Acinetobacter baumannii” value [5] was over 32 µg/mL. For the same molecule, the “fold more potent than etoposide, topoisomerase II” value (Human Topo II) was about 15 times, the IC50 (Human Topo II; kDNA, 1 U enzyme, 30 min, 37 °C, gel, ethidium bromide, n = 3) was 7.53 µM and the IC50 (E. coli gyrase) was over 20.5 µM. For the same molecule, the “MIC, Candida albicans” value [6] was over 32 µg/mL.
